Test results published in US10774071B2, “PD-1/PD-L1 inhibitors” (Gilead Sciences, Inc., priority 2018, dated 2020).

Key:
PD-1/PD-L1 = PD-1/PD-L1 (Homo sapiens (Human), UniProt Q9NZQ7); assay: PD-1/PD-L1 biochemical protein-protein interaction assay (ALPHA); assay type: binding; conditions: 0.3 nM His tagged PD-L1, 2.5 nM biotinylated Fc-PD-1, Table 3B, read-out: IC50 PD-L1-PD1
PD-L1 = PD-L1 (Homo sapiens (Human), UniProt Q9NZQ7); assay: PD-L1/PD-L1 dimerization biochemical protein-protein interaction assay (ALPHA); assay type: binding; conditions: 0.5 nM His tagged PD-L1 and 0.5 nM FLAG tagged PD-L1, Table 4B, read-out: AC50 PDL1 Dimer 1 nM
Chain of PD-L1 (Q9NZQ7 19-238): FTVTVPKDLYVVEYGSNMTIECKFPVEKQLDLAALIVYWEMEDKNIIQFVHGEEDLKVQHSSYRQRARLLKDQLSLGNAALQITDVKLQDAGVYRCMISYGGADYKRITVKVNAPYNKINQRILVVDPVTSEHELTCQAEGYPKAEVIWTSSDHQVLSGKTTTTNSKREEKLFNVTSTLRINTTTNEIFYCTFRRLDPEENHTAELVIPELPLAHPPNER
Chain of PD-L1 (Q9NZQ7 19-238): as above

Chain of PD-1/PD-L1 (Q9NZQ7 19-238): as above

Row | Compound | IC50 (PD-1/PD-L1) [nM] | AC50 (PD-L1) [nM]
1 | COc1nc(O[C@H]2CCc3c(-c4cccc(-c5cc(C)c(CN6CC(C)(O)C6)c(OC)n5)c4Cl)cccc32)c(Cl)cc1CN1CC[C@@H](C(=O)O)C1 [B-58] | 0.064 | 49.7
2 | COc1nc(O[C@H]2CCc3c(-c4cccc(-c5cc(C)c(CN6CC(C)(O)C6)c(OC)n5)c4Cl)cccc32)c(Cl)cc1CN1CC[C@H](C(=O)O)C1 [B-60] | 0.064 | 55.6
3 | COc1nc(-c2cccc(-c3cccc4c3CC[C@@H]4Oc3nc(OC)c(CN4CC(C(=O)O)C4)cc3C(F)(F)F)c2Cl)ccc1CNC[C@@H]1CCC(=O)N1 [B-63] | 0.064 | 7.82
4 | COc1nc(-c2cccc(-c3cccc4c3CC[C@@H]4Oc3nc(OC)c(CN4CCC(NC(C)=O)C4)cc3Cl)c2Cl)ccc1CNC[C@@H]1CCC(=O)N1 (stereo partly shown) [B-64] | 0.076 | 40.5
5 | COc1nc(-c2cccc(-c3cccc4c3CC[C@@H]4Oc3nc(OC)c(CN4CC5(C(=O)O)CCC4CC5)cc3Cl)c2C#N)ccc1CNC[C@@H]1CCC(=O)N1 [B-68] | 0.064 | 48
6 | COc1nc(O[C@H]2CCc3c(-c4cccc(-c5cnc(CNC[C@@H]6CCC(=O)N6)c(OC)n5)c4C#N)cccc32)c(Cl)cc1CN1CC[C@@H](C(=O)O)C1 [B-69] | 0.064 | 156
7 | COc1nc(-c2cccc(-c3cccc4c3CC[C@@H]4Oc3nc(OC)c(CN4CC(C(=O)O)C5(CCOC5)C4)cc3Cl)c2Cl)ccc1CNC[C@@H]1CCC(=O)N1 (stereo partly shown) [B-70] | 0.064 | 31.9
8 | COc1nc(-c2cccc(-c3cccc4c3CC[C@@H]4Oc3nc(OC)c(CN4CC(C(=O)O)C5(CCC5)C4)cc3Cl)c2Cl)ccc1CNC[C@@H]1CCC(=O)N1 (stereo partly shown) [B-71] | 0.064 | 35.7
9 | COc1nc(-c2cccc(-c3cccc4c3CC[C@@H]4Oc3nc(OC)c(CN4CC(C(=O)O)C5(CC5)C4)cc3Cl)c2Cl)ccc1CNC[C@@H]1CCC(=O)N1 (stereo partly shown) [B-72] | 0.064 | 25.8
10 | COc1nc(-c2cccc(-c3cccc4c3CC[C@@H]4Oc3nc(OC)c(CN4CC[C@@H](C(=O)O)C4)cc3Cl)c2C#N)ccc1CNC[C@@H]1CCC(=O)N1 [B-73] | 0.064 | 81.7
11 | COc1nc(-c2cccc(-c3cccc4c3CC[C@@H]4Oc3nc(OC)c(CN4CC(C(=O)O)C4)cc3Cl)c2C#N)ccc1CNC[C@@H]1CCC(=O)N1 [B-74] | 0.064 | 94.1
12 | COc1nc(-c2cccc(-c3cccc4c3CC[C@@H]4Oc3nc(OC)c(CN4CC5(C(=O)O)CCC4CC5)cc3Cl)c2C)ccc1CNC[C@@H]1CCC(=O)N1 [B-77] | 0.064 | 60.4
13 | COc1nc(O[C@H]2CCc3c(-c4cccc(-c5cnc(CNC[C@@H]6CCC(=O)N6)c(OC)n5)c4C)cccc32)c(Cl)cc1CN1CC2(C(=O)O)CCC1CC2 [B-80] | 0.064 | 46.9
14 | COc1nc(O[C@H]2CCc3c(-c4cccc(-c5cnc(CNC[C@@H]6CCC(=O)N6)c(OC)n5)c4C)cccc32)c(Cl)cc1CN1CC[C@@H](C(=O)O)C1 [B-81] | 0.064 | 118
15 | CNC(=O)C1CCN(Cc2cc(Cl)c(O[C@H]3CCc4c(-c5cccc(-c6ccc(CN7CC(C)(O)C7)c(OC)n6)c5Cl)cccc43)nc2OC)C1 (stereo partly shown) [B-86] | 0.235 | 109
16 | CNC(=O)C1CCN(Cc2ccc(-c3cccc(-c4cccc5c4CC[C@@H]5Oc4nc(OC)c(CN5CCC(C(=O)NC)C5)cc4Cl)c3Cl)nc2OC)C1 (stereo partly shown) [B-87] | 0.064 | 90.7

The next lines start with the values.

Row | IC50 (PD-1/PD-L1) [nM] | AC50 (PD-L1) [nM] | Compound
17 | 0.113 | 107 | COc1nc(O[C@H]2CCc3c(-c4cccc(-c5cc(C)c(CN6CC(C)(O)C6)c(OC)n5)c4Cl)cccc32)c(Cl)cc1CN1CC(C(=O)O)C1 [B-59]
18 | 0.064 | 6.22 | COc1nc(-c2cccc(-c3cccc4c3CC[C@@H]4Oc3nc(OC)c(CN4CC5(C(=O)O)CCC4CC5)cc3C(F)(F)F)c2Cl)ccc1CNC[C@@H]1CCC(=O)N1 [B-61]
19 | 0.064 | 9.3 | COc1nc(-c2cccc(-c3cccc4c3CC[C@@H]4Oc3nc(OC)c(CN4CC[C@@H](C(=O)O)C4)cc3C(F)(F)F)c2Cl)ccc1CNC[C@@H]1CCC(=O)N1 [B-62]
20 | 0.064 | 57.9 | COc1nc(-c2cccc(-c3cccc4c3CC[C@@H]4Oc3nc(OC)c(CN4CC[C@@H](C(=O)O)C4)cc3Cl)c2C)ccc1CNC[C@@H]1CCC(=O)N1 [B-78]
21 | 0.064 | 37.8 | COc1nc(-c2cccc(-c3cccc4c3CC[C@@H]4Oc3nc(OC)c(CN4CCN(C)C(C(=O)O)C4)cc3Cl)c2Cl)ccc1CNC[C@@H]1CCC(=O)N1 (stereo partly shown) [B-82]
22 | 0.064 | 211 | COc1nc(-c2cccc(-c3cccc4c3CC[C@@H]4Oc3nc(OC)c(CN4C[C@@H]5CCC[C@]5(C(=O)O)C4)cc3Cl)c2Cl)ccc1CN1CC(C)(O)C1 [B-83]
23 | 0.064 | 50.3 | COc1nc(-c2cccc(-c3cccc4c3CC[C@@H]4Oc3nc(OC)c(CN4CC[C@@H](C(=O)O)C4)cc3Cl)c2Cl)ccc1CN1CC(C)(O)C1 [B-85]
